Measured values published in PubChem BioAssay AID1963964 (Molecular Pharmacology Branch, DTP, NCI, 2024).
Where “and” joins values, the source holds several entries; their conditions need not be identical. Identical values can stand only once.

System: 997726-040-R-J2-PDC tumor spheroids, viability
Experiment: Anticancer human tumor 997726-040-R-J2-PDC patient-derived squamous cell lung carcinoma cell line growth inhibition [PI3K]
Conditions: spheroids with HUVEC and MSC; for viability, T/C: stronger effect = lower value
Procedure, shortened: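 Three cell types, namely tumor cells, endothelial cells and mesenchymal stem cells, formed each spheroid. Combinations with four PI3K inhibitors were screened at clinically achievable concentrations decreasing by half-log, and spheroid viability was recorded.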

[1] = curve of first compound, second compound 0.00316 µM
[2] = curve of first compound, second compound 0.01 µM
[3] = curve of first compound, second compound 0.0316 µM
[4] = curve of first compound, second compound 0.1 µM
[5] = curve of first compound, second compound 0.316 µM
[6] = curve of first compound, second compound 1 µM
[7] = second compound 0.00316 µM, first compound 0.0316 µM
[8] = second compound 0.00316 µM, first compound 0.1 µM
[9] = second compound 0.00316 µM, first compound 0.316 µM
[10] = second compound 0.00316 µM, first compound 1 µM
[11] = second compound 0.00316 µM, first compound 3.16 µM
[12] = second compound 0.00316 µM, first compound 10 µM
[13] = second compound 0.01 µM, first compound 0.0316 µM
[14] = second compound 0.01 µM, first compound 0.1 µM
[15] = second compound 0.01 µM, first compound 0.316 µM
[16] = second compound 0.01 µM, first compound 1 µM
[17] = second compound 0.01 µM, first compound 3.16 µM
[18] = second compound 0.01 µM, first compound 10 µM
[19] = second compound 0.0316 µM, first compound 0.0316 µM
[20] = second compound 0.0316 µM, first compound 0.1 µM
[21] = second compound 0.0316 µM, first compound 0.316 µM
[22] = second compound 0.0316 µM, first compound 1 µM
[23] = second compound 0.0316 µM, first compound 3.16 µM
[24] = second compound 0.0316 µM, first compound 10 µM
[25] = second compound 0.1 µM, first compound 0.0316 µM
[26] = second compound 0.1 µM, first compound 0.1 µM
[27] = second compound 0.1 µM, first compound 0.316 µM
[28] = second compound 0.1 µM, first compound 1 µM
[29] = second compound 0.1 µM, first compound 3.16 µM
[30] = second compound 0.1 µM, first compound 10 µM
[31] = second compound 0.316 µM, first compound 0.0316 µM
[32] = second compound 0.316 µM, first compound 0.1 µM
[33] = second compound 0.316 µM, first compound 0.316 µM
[34] = second compound 0.316 µM, first compound 1 µM
[35] = second compound 0.316 µM, first compound 3.16 µM
[36] = second compound 0.316 µM, first compound 10 µM
[37] = second compound 1 µM, first compound 0.0316 µM
[38] = second compound 1 µM, first compound 0.1 µM
[39] = second compound 1 µM, first compound 0.316 µM
[40] = second compound 1 µM, first compound 1 µM
[41] = second compound 1 µM, first compound 3.16 µM
[42] = second compound 1 µM, first compound 10 µM
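Further: spheroids exposed to compounds for seven days before readout.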

Compound: Cn1nccc1Nc1nccc(-c2ccn(C(CO)c3ccc(Cl)c(F)c3)c(=O)c2)n1 (configuration not stated) + CC(Nc1ccc2c(c1)OCCn1cc(N3C(=O)OCC3C(F)F)nc1-2)C(N)=O
- IC50 [1]: > 10 µM
- IC50 [2]: 4.67 µM
- IC50 [3]: 0.601 µM
- IC50 [4]: < 0.0316 µM
- IC50 [5]: < 0.0316 µM
- IC50 [6]: < 0.0316 µM
- viability, T/C [7]: 93%
- viability, T/C [8]: 75.4%
- viability, T/C [9]: 63.5%
- viability, T/C [10]: 64.3%
- viability, T/C [11]: 55.9%
- viability, T/C [12]: 49.4%
- viability, T/C [13]: 74.5%
- viability, T/C [14]: 72.6%
- viability, T/C [15]: 70.2%
- viability, T/C [16]: 58.9%
- viability, T/C [17]: 58.7%
- viability, T/C [18]: 39.6%
- viability, T/C [19]: 65.2%
- viability, T/C [20]: 57.5%
- viability, T/C [21]: 52%
- viability, T/C [22]: 47.3%
- viability, T/C [23]: 43.9%
- viability, T/C [24]: 31.8%
- viability, T/C [25]: 44.6%
- viability, T/C [26]: 39.5%
- viability, T/C [27]: 34.8%
- viability, T/C [28]: 32%
- viability, T/C [29]: 33.5%
- viability, T/C [30]: 23.6%
- viability, T/C [31]: 35.5%
- viability, T/C [32]: 34.4%
- viability, T/C [33]: 30%
- viability, T/C [34]: 31%
- viability, T/C [35]: 27.9%
- viability, T/C [36]: 20%
- viability, T/C [37]: 25.7%
- viability, T/C [38]: 27.5%
- viability, T/C [39]: 23%
- viability, T/C [40]: 27%
- viability, T/C [41]: 25.1%
- viability, T/C [42]: 19.1%

Compound: CCCS(=O)(=O)Nc1ccc(F)c(C(=O)c2c[nH]c3ncc(-c4ccc(Cl)cc4)cc23)c1F
- viability, T/C (compound 0.0316 µM): 103% [middle of 4 runs]
- viability, T/C (compound 0.1 µM): 106% [middle of 4 runs]
- viability, T/C (compound 0.316 µM): 104% (2×) and 114% and 126%
- viability, T/C (compound 1 µM): 131% [middle of 4 runs]
- viability, T/C (compound 10 µM): 27.6% [middle of 4 runs]
- IC50 (curve of compound): 7.12 µM and 7.36 µM and 7.32 µM

Compound: C[C@@H](NC(=O)c1ncnc(N)c1Cl)c1ncc(C(=O)Nc2cc(C(F)(F)F)c(Cl)cn2)s1 + Cc1nc(NC(=O)N2CCCC2C(N)=O)sc1-c1ccnc(C(C)(C)C(F)(F)F)c1
- IC50 [3]: > 10 µM
- IC50 [4]: > 10 µM
- IC50 [5]: > 10 µM
- IC50 [6]: 0.0589 µM
- IC50 (curve of first compound, second compound 3.16 µM): < 0.0316 µM
- IC50 (curve of first compound, second compound 10 µM): < 0.0316 µM
- viability, T/C [19]: 101%
- viability, T/C [20]: 115%
- viability, T/C [21]: 111%
- viability, T/C [22]: 107%
- viability, T/C [23]: 102%
- viability, T/C [24]: 68.2%
- viability, T/C [25]: 96%
- viability, T/C [26]: 97.5%
- viability, T/C [27]: 99.5%
- viability, T/C [28]: 83.9%
- viability, T/C [29]: 66.3%
- viability, T/C [30]: 60.2%
- viability, T/C [31]: 64.7%
- viability, T/C [32]: 62.4%
- viability, T/C [33]: 66.8%
- viability, T/C [34]: 76.3%
- viability, T/C [35]: 61.3%
- viability, T/C [36]: 47.7%
- viability, T/C [37]: 49.4%
- viability, T/C [38]: 49.5%
- viability, T/C [39]: 45.3%
- viability, T/C [40]: 48.6%
- viability, T/C [41]: 42.8%
- viability, T/C [42]: 35.4%
- viability, T/C (second compound 3.16 µM, first compound 0.0316 µM): 36.6%
- viability, T/C (second compound 3.16 µM, first compound 0.1 µM): 39.9%
- viability, T/C (second compound 3.16 µM, first compound 0.316 µM): 34.5%
- viability, T/C (second compound 3.16 µM, first compound 1 µM): 33%
- viability, T/C (second compound 3.16 µM, first compound 3.16 µM): 35.9%
- viability, T/C (second compound 3.16 µM, first compound 10 µM): 21.2%
- viability, T/C (second compound 10 µM, first compound 0.0316 µM): 15%
- viability, T/C (second compound 10 µM, first compound 0.1 µM): 15.4%
- viability, T/C (second compound 10 µM, first compound 0.316 µM): 18.4%
- viability, T/C (second compound 10 µM, first compound 1 µM): 18.8%
- viability, T/C (second compound 10 µM, first compound 3.16 µM): 19.6%
- viability, T/C (second compound 10 µM, first compound 10 µM): 8.61%

Compound: CC(C)NCC(C(=O)N1CCN(c2ncnc3c2C(C)CC3O)CC1)c1ccc(Cl)cc1 (configuration not stated) + COc1c(OCCCN2CCOCC2)ccc2c3n(c(=NC(=O)c4cnc(N)nc4)nc12)CCN3
- IC50 [1]: 0.19 µM
- IC50 [2]: 0.0798 µM
- IC50 [3]: < 0.0316 µM
- IC50 [4]: < 0.0316 µM
- IC50 [5]: < 0.0316 µM
- IC50 [6]: < 0.0316 µM
- viability, T/C [7]: 67.1%
- viability, T/C [8]: 55.3%
- viability, T/C [9]: 46%
- viability, T/C [10]: 29.1%
- viability, T/C [11]: 15.7%
- viability, T/C [12]: 9.1%
- viability, T/C [13]: 51.6%
- viability, T/C [14]: 49.6%
- viability, T/C [15]: 42.8%
- viability, T/C [16]: 27%
- viability, T/C [17]: 16.8%
- viability, T/C [18]: 9.46%
- viability, T/C [19]: 36.4%
- viability, T/C [20]: 33.1%
- viability, T/C [21]: 27%
- viability, T/C [22]: 22.3%
- viability, T/C [23]: 13.3%
- viability, T/C [24]: 7.3%
- viability, T/C [25]: 19.4%
- viability, T/C [26]: 17.6%
- viability, T/C [27]: 18.9%
- viability, T/C [28]: 14.4%
- viability, T/C [29]: 8.93%
- viability, T/C [30]: 5.81%
- viability, T/C [31]: 6.3%
- viability, T/C [32]: 5.44%
- viability, T/C [33]: 4.27%
- viability, T/C [34]: 3.76%
- viability, T/C [35]: 3.51%
- viability, T/C [36]: 2.65%
- viability, T/C [37]: 1.14%
- viability, T/C [38]: 1.32%
- viability, T/C [39]: 1.04%
- viability, T/C [40]: 1.33%
- viability, T/C [41]: 2.38%
- viability, T/C [42]: 1.22%
